Read-outs that look alike come from different tables or passages of the source.
Key:
Rat hippocampal neurons [1] = test: Neurite outgrowth assay; format: cell-based
[2] = tested on: scopolamine-induced spatial memory deficits in rats; test: Scopolamine-induced spatial memory deficit, Morris water maze (3 mg/kg scopolamine, 8 days); format: in vivo, rat
[3] = tested on: Rat primary cortical neuron cultures; format: cell-based; conditions: for Significance of neuroprotection vs 1 uM LPS: 24 h LPS
Rat hippocampal neurons [4] = test: Synaptogenesis assay; format: cell-based; conditions: for Significant increase in: Synapses: Table 4 study
[5] = tested on: patient in need of treatment for long COVID; test: Treating long COVID (Example 1), clinical screening assessments; format: in vivo, human; conditions: patients with long COVID
Protocol: A Compound of Formula (I), such as Compound 2a or Compound 1a, or a pharmaceutically acceptable salt thereof, is administered orally to a patient in need of treatment for long COVID.
In some embodiments, a patient in need of treatment for long COVID is assessed with ADCS-ADL23. The ADCS-ADL23 (Galasko, 1997) is a 23-item assessment of functional impairment in terms of activities of daily living administered to the support person/caregiver. It comprises 23 questions about the subject's involvement and level of performance across items representing daily living. The questions range from basic to instrumental activities of daily living. Each item is rated from the highest level of independent performance to complete loss. The total score range is from 0 to 78, with lower scores indicating greater functional impairment.
A patient in need of treatment for long COVID is assessed with ERP P300. ERP P300 is a quantitative, unbiased, non-invasive method of recording task-related brain processing speed, elicited by external stimuli, e.g., an oddball auditory stimulus, and is a well-established functional biomarker, particularly of working memory access (Ally, 2006). ERP P300 is characterized by a stereotyped series of voltage deflections occurring after the respective odd tone to be counted, with early features (<100 msec) corresponding to unconscious sensory transmission (auditory cortex, N100), and later features produced by cognitive processing in the ventral attentional network, i.e., P300, referring to the large positive deflection at roughly 300 msec in healthy adults (young or elderly). The P300 latency is sensitive to detecting reduced synaptic transmission related to cognitive decline in AD patients and other dementias (Olichney, 2011).

CCC(C)CN1CC2N(C(=O)c3ccc(OC(F)F)cc3)CCC(=O)N2[C@@H](C)C1=O (some centres unmarked) [Compound 2a]
neurite length / extension of neurites (in words) (Rat hippocampal neurons [1]): increase neurite length at a concentration of 10 nM | Significant increase in: Neurite length (Rat hippocampal neurons [1]; 10 nM, Table 4 study): ++++ (++++ = p < 0.0001) | Cognitive Improvement ([2]; 0.1 mg/kg PO): − (− indicates post-test p-value above 0.06) | Cognitive Improvement ([2]; 1 mg/kg PO): +++ (+++ indicates post-test p-value below 0.01) | Cognitive Improvement ([2]; 10 mg/kg PO): − (− indicates post-test p-value above 0.06) | Significance of neuroprotection vs 1 uM LPS ([3]; 0.1 nM): +++ (+++ indicates p<0.001) | Significance of neuroprotection vs 1 uM LPS ([3]; 1 nM): +++ (+++ indicates p<0.001) | Significance of neuroprotection vs 1 uM LPS ([3]; 10 nM): +++ (+++ indicates p<0.001) | Significance of neuroprotection vs 1 uM LPS ([3]; 100 nM): +++ (+++ indicates p<0.001) | Significance of neuroprotection vs 1 uM LPS ([3]; 1 μM): +++ (+++ indicates p<0.001) | protection of primary neurons from LPS-stimulated inflammatory toxicity ([3]; at at least one dose tested): protected primary neurons from LPS-stimulated inflammatory toxicity | synapse counts (in words) (Rat hippocampal neurons [4]): increase synapse counts at all concentrations tested | Significant increase in: Synapses (Rat hippocampal neurons [4]; 1 nM): ++++ (++++ = p < 0.0001) | Significant increase in: Synapses (Rat hippocampal neurons [4]; 10 nM): ++++ (++++ = p < 0.0001) | Significant increase in: Synapses (Rat hippocampal neurons [4]; 100 nM): ++++ (++++ = p < 0.0001) | patient outcome as measured by one or more of the screening assessments [5]: reduces the rate of decline, stabilizes, or improves patient outcome | safety and tolerability [5]: acceptable safety and tolerability

— patent US20250161308A1, “Methods of Treating Covid-Related Disorders” (priority 2022, published 2025)
